Data from patent US11883434B2, “Extracellular vesicles and methods of using” (NUtech Ventures, priority 2017, dated 2024).

How the values were obtained:
HUVEC = assay: Cell death (MTT viability) assay with puromycin-loaded exosomes; format: cell-based, human; settings: 1,837 μM puromycin added directly to media, 24 h
Method: The possibility that adherence to cells, rather than uptake into cells, accounted for cell fluorescence was dismissed based on the following cell death-based and enhanced green fluorescent protein (eGFP) protocols. Milk exosomes were suspended in BTXpress electroporation buffer (BTX, Holliston, MA; final concentration 100 […]), containing zero (negative control), 56 μM, or 223 μM puromycin in a 4-mm electroporation cuvette. Exosomes were loaded with puromycin or with a mammalian eGFP expression plasmid by electroporation in a Gene Pulser Xcell electroporator (Bio-Rad) using 250 V, 950 μF, and infinite resistance. Extra-exosomal puromycin was removed by ultracentrifugation and washing, and exosomes were resuspended in 300 μl of exosome-depleted cell culture media. In cell death assays, 100 μl of the suspension were added per well in a 96-well cell culture plate (containing ˜200 μl of media) and cells were cultured for 24 h, when viability was assessed using the MTT assay. Positive controls were created by adding puromycin directly to the media without encapsulation in exosomes, thereby producing a concentration of 1,837 μM puromycin. In eGFP assays, cells were cultured in media in which eGFP-loaded milk exosomes were substituted for exosomes in fetal bovine serum. Expression of eGFP was assessed by using confocal microscopy 3 days after initiation of cultures.

[1] = system: human umbilical vein endothelial cells (HUVEC); assay: Uptake of fluorophore-labeled milk exosomes into HUVECs; format: cell-based; settings: for effect on exosome uptake in HUVEC cells: inhibitors or 150 mmol/L carbohydrate competitors
[2] = system: human colon carcinoma Caco-2 cells; format: cell-based
Method: Caco-2 cells and IEC-6 cells were seeded at a density of 20,000 and 7000 cells/well, respectively, in 96-well plates, and allowed to adhere for 48 h, when cells were 75% confluent. The exosomes were labeled with the fluorophore, FM 4-64 (Molecular Probes). One microliter of a stock solution of FM 4-64 (5.9 mmol/L) was added to 1 mL of exosome suspension and incubated for 15 min at 37° C., and excess FM 4-64 was removed by ultracentrifugation at 120,000 3 g at 4° C. for 90 min. […] Assays were calibrated by quantifying the fluorescence of a known mass of exosomes labeled with FM 4-64. Exosome uptake was analyzed by measuring the cell fluorescence at 515 (excitation) and 640 nm (emission) using a Biotek FLx800 plate reader (BioTek Instru-ments). Fluorescence readings were corrected for cell autofluorescence by subtracting signals measured in cells incubated with exosome-depleted media. […] In Caco-2 cells, exosome uptake was linear for up to 120 min if transport was measured using nonsaturating substrate concentrations (FIG. 33A): y=0.0012x+0.014 (r2=0.97; P<0.05). In IEC-6 cells exosome uptake was linear for only up to 60 min if transport was measured using nonsaturating substrate concentrations (FIG. 33B): y=0.0033x+0.033 (r2=0.75; P<0.05). […]

Caco-2 cells = format: in vitro ADME, human
Method: In transwell studies Caco-2 cells were seeded at a density of 9000 cells/well with […] of media in 96-well polycarbonate plates with a pore size of […] (EMD Millipore). The cells were allowed to grow a differentiated monolayer for 21-24 d (33). Caco-2 cell monolayer integrity was formally confirmed using the Lucifer yellow (LY) rejection assay according to the manufacturer's instructions (33). LY fluorescence was measured in the transwell apical and basolateral chambers after 1 h of incubation at 37° C. In parallel experiments, Caco-2 cells were cultured in exosome-depleted media to which milk exosomes were added back to produce a concentration of 275 mg/100 mL exosomal protein in either the upper, apical chamber or the lower, basolateral chamber. Controls were cultured in exosome-depleted media. Aliquots of media were collected from the upper chamber and bottom chamber after 2 h of incubation for analysis of microRNAs. Twenty-five attomoles of internal standard (miSPIKE Synthetic RNA; IDT Technologies) was added to samples before microRNA extraction and subsequent analysis of miR-29b and miR-200c in transwell chambers by quantitative real-time PCR and microRNA-specific primers; miSpike was also used for PCR calibration. Values were corrected for the internal standard to normalize for extraction efficiency.

[3] = system: human small intestinal cells (FHs cells); assay: Uptake of milk exosomes into FH cells (protease, glycosidase, lectin, sonication); format: cell-based
[4] = system: human macrophage U937 cells; assay: Uptake of milk exosomes into U937 cells; format: cell-based; settings: exosomes treated with the labelled agent
[5] = FH cells treated with the labelled agent
[6] = exosomes treated with the labelled agent

| Molecule | effect on exosome uptake in HUVEC cells [1] | effect on exosome uptake in FH cells [3, 5] | effect on exosome uptake in FH cells [3, 6] | further results |
| --- | --- | --- | --- | --- |
| COc1ccc(C[C@H](N)C(=O)N[C@H]2[C@@H](O)[C@H](n3cnc4c(N(C)C)ncnc43)O[C@@H]2CO)cc1 [puromycin] | – | – | – | viability (HUVEC): 37 % of puromycin-free controls |
| O=C[C@H](O)[C@@H](O)[C@@H](O)[C@H](O)CO [D-galactose] | significant decrease in exosome uptake | – | – | – |
| C=C1[C@@H](C)[C@H]2[C@H](Cc3ccccc3)NC(=O)[C@]23[C@H](OC(C)=O)/C=C/[C@@](C)(O)C(=O)[C@@H](C)C/C=C/[C@H]3[C@@H]1O [cytochalasin D] | decrease in exosome uptake | – | – | decrease of exosome transport compared with controls ([1]; HUVEC, exosomes treated with proteinase K, or transport in presence of the labelled agent): 50%; exosome uptake ([1]; cells treated with 5 μg/ml cytochalasin D): 63.5±21.3 % of controls; exosome uptake ([1]; cells treated with 10 μg/ml cytochalasin D): 40.8±22.0 % of controls |
| Glu-C: Serine protease cleaving at glutamic acid and aspartic acid | – | – | – | effect on exosome uptake in Caco-2 cells ([2]; Caco-2): significant decrease in exosome transport; transport rates (Vmax) ([2]; exosomes treated with the labelled protease, intestinal transport): 19±0.3 arbitrary units |
| Lucifer yellow | – | – | – | rejection rate (Caco-2 cells): 99.8% |
| SBA: Lectin binding terminal N-acetylgalactosamine and galactopyranosyl residues | – | decreases the uptake | decreases the uptake | – |
| C[C@H]1CCC/C=C/[C@@H]2C[C@H](O)C[C@H]2[C@H](O)/C=C/C(=O)O1 [BFA, brefeldin A] | decrease in exosome uptake | – | – | – |
| PHA-E: Lectin binding terminal galactose, N-acetylglucosamine and mannose residues of complex glycans | – | decreases the uptake | decreases the uptake | – |
| β-galactosidase | – | decrease in exosome uptake | decrease in exosome uptake | effect on exosome uptake in U937 cells [4]: decrease in exosome uptake |
